Laboratory results as given in US20120295935A1, “MIXED AMINAL PHARMACEUTICAL COMPOSITIONS AND USES THEREOF” (priority 2010, published 2012).
“Also recorded” adds a separate entry of the source.

Key:
[1] = system: MC3T3 E1 osteoblast-like cells; assay: Western blot of eIF2α-p, ATF4, CHOP and caspase 3 proteins in response to thapsigargin; assay type: cell-based, mouse
Protocol: At higher doses of 10 and 100 nM, the levels of eIF2α-p and ATF4 proteins were elevated (FIG. 3A). Thapsigarin is known to induce apoptosis when administered above a threshold concentration.

MC3T3 cells [2] = assay: Cell proliferation and death; assay type: cell-based; details: 1 h incubation with 10 nM (mild ER stress)
MC3T3 cells [3] = assay: mRNA expression levels by real-time PCR; assay type: cell-based, mouse
Protocol: Responses to Administration of Thapsigargin—Upregulation of transcription factors linked to bone formation as well as PERK: The effects of 10 nM thapsigargin on mRNA expression levels of ISR-linked genes (ATF4, ATF3, and CHOP) as well as genes involved in bone remodeling (Runx2, Osterix, and Rank1), were examined (FIG. 5). […] Out of 4 transcription factors (ATF4, ATF3, Runx2, and Osterix), the level of ATF4 mRNA was elevated 2-4 fold throughout the treatments. […] The mRNA level of type 1 collagen was elevated 5 h and 10 h for T1h (1 h exposure at 10 nM).
Responses to Administration of Salubrinal—In vitro responses to salubrinal: In order to evaluate the effects of salubrinal, MC3T3 E1 osteoblast-like cells and MLO-A5 osteocyte cells (Barragan-Adjemian, C., et al., “Mechanism by which MLO-A5 late osteoblasts/early osteocytes mineralize in culture: similarities with mineralization of lamellar bone,” Calcif. Tissue Int. 79:340-353 (2006)) were incubated with salubrinal at 100 nM-50 μM for 1-24 h. The mRNA levels of the selected genes, TF4, ATF3, Osteocalcin (OCN), and CHOP, were determined by real-time PCR. […] In MC3T3 cells, for instance, the Osteocalcin mRNA level, which is regulated by ATF4 and Runx2 (Xiao et al. 2005), was elevated 11.8±0.2 fold at 10 μM salubrinal in 24 h.

MC3T3 cells [4] = assay: Phosphorylation of eIF2α kinases (PERK, PKR) and MAP kinases (p-38 MAPK, ERK1/2); assay type: cell-based, mouse; details: 10 nM, 1 h exposure
Protocol: In response to T1h (1 h exposure at 10 nM), the level of phosphorylation of two eIF2α kinases (PERK and PKR), and two MAP kinases (p-38 MAPK and ERK1/2) was examined (FIG. 6).

MC3T3 cells [5] = assay: mRNA expression levels by real-time PCR; assay type: cell-based, mouse; details: 1-100 nM for 1-24 h

## C/C=C(/C)C(=O)O[C@H]1C(C)=C2[C@H]([C@@H]1OC(=O)CCCCCCC)[C@@](C)(OC(C)=O)C[C@H](OC(=O)CCC)[C@@]1(O)[C@H]2OC(=O)[C@@]1(C)O [thapsigargin]
[1]; 10 nM
  CHOP protein level: started to increase after 3 h
  Pro-caspase 3 level: not significantly altered
  cleaved caspase 3 (active form) level: increased after 24 h
[1]; 10 and 100 nM
  ATF4 protein level: elevated
  eIF2α-p protein level: elevated
[1]; lower dosages below 0.1 nM
  ATF4 protein level: no detectable upregulation
  eIF2α-p protein level: no detectable upregulation
MC3T3 cells [2]
  numbers of live and dead cells (cell number or mortality): does not alter; also recorded: no significant difference
MC3T3 cells [3]; 10 nM
  ATF3 mRNA level: 100-1000 times
  CHOP mRNA level: 10-35 fold
  Osterix mRNA: enhanced at 1 h
  Runx2 mRNA increase: started at 3 h and peaked at 5 h
MC3T3 cells [3]; 10 nM, 1, 2 and 3 h exposures
  ATF4 mRNA level: 2-4 fold
MC3T3 cells [3]; 3 h for T2h and 10 h for T3h, 10 nM
  Rank1 mRNA: significantly up
MC3T3 cells [3]; 5 h and 10 h for T1h (1 h exposure at 10 nM)
  type 1 collagen mRNA level: elevated
MC3T3 cells [4]
  p-ERK1/2 level: not altered; also recorded: unchanged
  p-PERK level: elevated; also recorded: Activation
  p-PKR level: not altered; also recorded: unchanged
  p-p38 MAPK level: elevated; also recorded: Activation
MC3T3 cells [5]
  Osteocalcin mRNA level: did not increase
